{
  "source": "patent US20240398757A1",
  "about": "(COCRYSTAL PHARMA, INC., priority 2022, published 2024)",
  "data": [
    {"biological_target": "T1, SARS2 protease (Severe acute respiratory syndrome coronavirus 2, UniProt P0DTD1)", "T1 construct": "SARS2 protease was added to a final concentration of 30 nM", "assay": "SARS-CoV-2 protease inhibition assay (SARS2 FRET protease assay)", "assay_type": "biochemical", "settings": "IC50 (μM), SARS2 protease 30 nM, peptide substrate 1.3 μM, 120 minutes at 37° C., compounds 20 μM to 0.075 nM", "units": {"IC50": "µM"}, "values": [
      {"smiles": "CCCC[C@H](NC(=O)OC(c1ccccc1)C(F)(F)c1cccc(Cl)c1)C(=O)N[C@@H](C[C@@H]1CCNC1=O)C(=O)c1nc2ccccc2s1", "note": "(stereo partly drawn) [Compound A238, 2-(3-chlorophenyl)-2,2-difluoro-1-phenylethyl ((S)-1-(((S)-1-(benzo[d]thiazol-2-yl)-1-oxo-3-((S)-2-oxopyrrolidin-3-yl)propan-2-yl)amino)-1-oxohexan-2-yl)carbamate]", "IC50": 1.16},
      {"smiles": "CC(C)C[C@H](NC(=O)O[C@H](c1ccccc1)C(F)(F)c1cccc(F)c1)C(=O)N[C@H](C=O)C[C@@H]1CCNC1=O", "note": "[Compound A152]", "IC50": 0.0078},
      {"smiles": "CC(C)C[C@H](NC(=O)OC(c1ccccc1)C(C)(C)c1cccc(C(F)(F)F)c1)C(=O)N[C@@H](C[C@@H]1CCNC1=O)C(=O)C(=O)NC1CC1", "note": "(stereo partly drawn) [Compound A197]", "IC50": 0.027},
      {"smiles": "CC(C)C[C@H](NC(=O)O[C@H](c1ccc(F)cc1)C(F)(F)c1cccc(Cl)c1)C(=O)N[C@H](C=O)C[C@@H]1CCNC1=O", "note": "[Compound A149]", "IC50": 0.0001},
      {"smiles": "CCN1CCC(NC(=O)C(=O)[C@H](C[C@@H]2CCNC2=O)NC(=O)[C@H](CC(C)C)NC(=O)OC(c2ccc(F)cc2)C(CC)(CC)c2cccc(Cl)c2)CC1", "note": "(stereo partly drawn) [Compound A32]", "IC50": 10.1},
      {"smiles": "CC(C)C[C@H](NC(=O)OC(c1ccccc1)C(C)(C)c1cccc(C(F)(F)F)c1)C(=O)N[C@H](C=O)C[C@@H]1CCNC1=O", "note": "(stereo partly drawn) [Compound A171]", "IC50": 0.0001},
      {"smiles": "CCCC[C@H](NC(=O)O[C@@H](c1ccccc1)C(F)(F)c1cccc(Cl)c1)C(=O)N[C@@H](C[C@@H]1CCCNC1=O)C(=O)C(=O)NC1CC1", "note": "[Compound A195]", "IC50": 0.211},
      {"smiles": "CCCC[C@H](NC(=O)O[C@H](c1ccccc1)C(C)(C)c1cccc(Cl)c1)C(=O)N[C@H](C=O)C[C@@H]1CCNC1=O", "note": "[Compound A62]", "IC50": 0.148},
      {"smiles": "O=C(N[C@@H](CC1CCCCC1)C(=O)N[C@@H](C[C@@H]1CCNC1=O)C(O)S(=O)(=O)O)O[C@@H](c1ccccc1)C(F)(F)c1cccc(Cl)c1", "note": "(stereo partly drawn) [Compound A141, sodium (2S)-2-((S)-2-((((S)-2-(3-chlorophenyl)-2,2-difluoro-1-phenylethoxy)carbonyl)amino)-3-cyclohexylpropanamido)-1-hydroxy-3-((S)-2-oxopyrrolidin-3-yl)propane-1-sulfonate]", "IC50": 0.055},
      {"smiles": "CCNC(=O)C(=O)[C@H](C[C@@H]1CCNC1=O)NC(=O)[C@H](CC1(CC)CCC1)NC(=O)O[C@H](c1ccccc1)C(F)(F)c1cccc(Cl)c1", "note": "[Compound A322]", "IC50": 1.72},
      {"smiles": "CCCC[C@H](NC(=O)OC(c1ccc(F)cc1)C1(c2cccc(F)c2)CC1)C(=O)N[C@H](C=O)C[C@@H]1CCNC1=O", "note": "(stereo partly drawn) [Compound A64]", "IC50": 0.003},
      {"smiles": "CCC(CC)(c1cccc(Cl)c1)C(OC(=O)N[C@@H](CC(C)C)C(=O)N[C@@H](C[C@@H]1CCNC1=O)C(=O)C(=O)NC1CC1)c1cccc(Cl)c1", "note": "(stereo partly drawn) [Compound A35]", "IC50": 1.07},
      {"smiles": "CCCC[C@H](NC(=O)OC(c1ccc(F)cc1)C1(c2cccc(F)c2)CC1)C(=O)N[C@@H](C[C@@H]1CCNC1=O)C(=O)C(=O)NC1CC1", "note": "(stereo partly drawn) [Compound A71]", "IC50": 0.222},
      {"smiles": "CCCC[C@H](NC(=O)O[C@H](c1ccccc1)C(C)(C)c1cccc(Cl)c1)C(=O)N[C@H](C=O)C[C@H]1CCNC1=O", "note": "[Compound A123]", "IC50": 5.3},
      {"smiles": "CCCC[C@H](NC(=O)OC(c1ccccc1)C(C)(C)c1cccc(F)c1)C(=O)N[C@@H](C[C@@H]1CCNC1=O)C(=O)C(=O)NC1CC1", "note": "(stereo partly drawn) [Compound A43]", "IC50": 0.26},
      {"smiles": "CC(C)C[C@H](NC(=O)OC(c1ccc(Cl)cc1)C1(c2cccc(Cl)c2)CCCCC1)C(=O)N[C@H](C=O)C[C@@H]1CCNC1=O", "note": "(stereo partly drawn) [Compound A49]", "IC50": 0.38},
      {"smiles": "CCCC[C@H](NC(=O)OC(c1ccccc1)C(F)(F)c1cccc(Cl)c1)C(=O)N[C@@H](C[C@@H]1CCNC1=O)C(=O)C(N)=O", "note": "(stereo partly drawn) [Compound A224, 2-(3-chlorophenyl)-2,2-difluoro-1-phenylethyl ((S)-1-(((S)-4-amino-3,4-dioxo-1-((S)-2-oxopyrolidin-3-yl)butan-2-yl)amino)-1-oxohexan-2-yl) carbamate]", "IC50": 0.0001},
      {"smiles": "O=C[C@H](C[C@@H]1CCNC1=O)NC(=O)[C@H](CC(F)F)NC(=O)OC(c1ccccc1)C(F)(F)c1cccc(Cl)c1", "note": "(stereo partly drawn) [Compound A232, 2-(3-chlorophenyl)-2,2-difluoro-1-phenylethyl ((S)-4,4-difluoro-1-oxo-1-(((S)-1-oxo-3-((S)-2-oxopyrrolidin-3-yl)propan-2-yl)amino)butan-2-yl)carbamate]", "IC50": 0.022},
      {"smiles": "CCCC[C@H](NC(=O)OC(c1ccc(F)cc1)C(F)(F)c1cccc(Cl)c1)C(=O)N[C@@H](C[C@@H]1CCNC1=O)C(=O)C(=O)NC1CC1", "note": "(stereo partly drawn) [Compound A70]", "IC50": 0.028},
      {"smiles": "CCCC[C@H](NC(=O)OC(c1cccc(F)c1)C(F)(F)c1cccc(F)c1)C(=O)N[C@H](C=O)C[C@@H]1CCNC1=O", "note": "(stereo partly drawn) [Compound A78]", "IC50": 0.009},
      {"smiles": "CCNC(=O)C(=O)[C@H](C[C@H]1CCNC1=O)NC(=O)[C@H](CC(C)C)NC(=O)OC(c1ccccc1)C(F)(F)c1cccc(Cl)c1", "note": "(stereo partly drawn) [Compound A188]", "IC50": 0.392},
      {"smiles": "CCNC(=O)C(=O)[C@H](C[C@@H]1CCNC1=O)NC(=O)[C@@H](CC1(CC)CCC1)NC(=O)O[C@@H](c1ccccc1)C(F)(F)c1cccc(Cl)c1", "note": "[Compound A320]", "IC50": 0.0001},
      {"smiles": "CC(C)C[C@H](NC(=O)O[C@@H](c1ccccc1)C(F)(F)c1cccc(C(C)C)c1)C(=O)N[C@@H](C[C@@H]1CCNC1=O)C(=O)C(=O)NC1CC1", "note": "[Compound A193]", "IC50": 0.135},
      {"smiles": "CCCC[C@H](NC(=O)OC(c1ccccc1)C(F)(F)c1cccc(Cl)c1)C(=O)N[C@@H](C[C@@H]1CCNC1=O)C(=O)C(=O)NCCO", "note": "(stereo partly drawn) [Compound A231, 2-(3-chlorophenyl)-2,2-difluoro-1-phenylethyl ((S)-1-(((S)-4-((2-hydroxyethyl)amino)-3,4-dioxo-1-((S)-2-oxopyrrolidin-3-yl)butan-2-yl)amino)-1-oxohexan-2-yl)carbamate]", "IC50": 0.089},
      {"smiles": "O=C[C@H](C[C@@H]1CCNC1=O)NC(=O)[C@H](CC1CC1)NC(=O)OC(c1ccccc1)C(F)(F)c1cccc(Cl)c1", "note": "(stereo partly drawn) [Compound A95]", "IC50": 0.0009},
      {"smiles": "CC(C)C[C@H](NC(=O)OC(c1ccccc1)C(C)(C)c1cccc(F)c1)C(=O)NC(C)(C=O)C[C@@H]1CCNC1=O", "note": "(stereo partly drawn) [Compound A39]", "IC50": 2.3},
      {"smiles": "CCC[C@H](NC(=O)O[C@H](c1ccccc1)C(F)(F)c1cccc(Cl)c1)C(=O)N[C@H](C=O)C[C@@H]1CCNC1=O", "note": "[Compound A208]", "IC50": 0.004},
      {"smiles": "O=C(N[C@@H](CC1CCCCC1)C(=O)N[C@@H](C[C@@H]1CCNC1=O)C(=O)C(=O)NC1CC1)O[C@H](c1ccccc1)C(F)(F)c1cccc(Cl)c1", "note": "[Compound A175]", "IC50": 1.36},
      {"smiles": "CC(C)C[C@H](NC(=O)OC(c1cccc(Cl)c1)C1(c2cccc(Cl)c2)CCCCC1)C(=O)N[C@@H](C[C@@H]1CCNC1=O)C(=O)C(=O)NC1CC1", "note": "(stereo partly drawn) [Compound A65]", "IC50": 0.571},
      {"smiles": "CCCC[C@H](NC(=O)OC(c1ccc(F)cc1)C1(c2cccc(Cl)c2)CC1)C(=O)N[C@H](C=O)C[C@@H]1CCNC1=O", "note": "(stereo partly drawn) [Compound A91]", "IC50": 0.01},
      {"smiles": "CC(C)C[C@H](NC(=O)OC(c1ccccc1)C(F)(F)c1cccc(Cl)c1)C(=O)N[C@H](C#N)C[C@@H]1CCNC1=O", "note": "(stereo partly drawn) [Compound A41]", "IC50": 2.29},
      {"smiles": "CCCC[C@H](NC(=O)OC(c1ccccc1)C1(c2cccc(Cl)c2)CC1)C(=O)N[C@H](C=O)C[C@@H]1CCNC1=O", "note": "(stereo partly drawn) [Compound A90]", "IC50": 0.04},
      {"smiles": "CCCC[C@H](NC(=O)OC(c1ccc(F)cc1)C(F)(F)c1cccc(F)c1)C(=O)N[C@@H](C[C@@H]1CCNC1=O)C(=O)C(=O)NC1CC1", "note": "(stereo partly drawn) [Compound A58]", "IC50": 0.16},
      {"smiles": "CC(C)C[C@H](NC(=O)O[C@H](c1ccccc1)C(C)(C)c1cccc(Cl)c1)C(=O)N[C@@H](C[C@@H]1CCNC1=O)C(=O)C(=O)NC1CC1", "note": "[Compound A5]", "IC50": 2.79},
      {"smiles": "O=C(N[C@@H](CC1CCCCC1)C(=O)N[C@@H](C[C@@H]1CCNC1=O)C(O)S(=O)(=O)O)O[C@H](c1ccccc1)C(F)(F)c1cccc(F)c1", "note": "(stereo partly drawn) [Compound A233, sodium (2S)-2-((S)-3-cyclohexyl-2-((((R)-2,2-difluoro-2-(3-fluorophenyl)-1-phenylethoxy)carbonyl)amino)propanamido)-1-hydroxy-3-((S)-2-oxopyrrolidin-3-yl)propane-1-sulfonate]", "IC50": 0.025},
      {"smiles": "CCCC[C@H](NC(=O)OC(c1ccccc1)C(C)(C)c1cccc(F)c1)C(=O)N[C@H](C=O)C[C@@H]1CCNC1=O", "note": "(stereo partly drawn) [Compound A37]", "IC50": 0.91},
      {"smiles": "CCC1(C[C@H](NC(=O)OC(c2ccccc2)C(F)(F)c2cccc(Cl)c2)C(=O)N[C@@H](C[C@@H]2CCNC2=O)C(=O)C(=O)NC2CC2)CC1", "note": "(stereo partly drawn) [Compound A281, 2-(3-chlorophenyl)-2,2-difluoro-1-phenylethyl ((S)-1-(((S)-4-(cyclopropylamino)-3,4-dioxo-1-((S)-2-oxopyrrolidin-3-yl)butan-2-yl)amino)-3-(1-ethylcyclopropyl)-1-oxopropan-2-yl)carbamate]", "IC50": 0.001},
      {"smiles": "CCNC(=O)C(=O)[C@H](C[C@@H]1CCNC1=O)NC(=O)[C@H](CC1CCCCC1)NC(=O)O[C@H](c1ccccc1)C(F)(F)c1cccc(Cl)c1", "note": "[Compound A134]", "IC50": 1.18},
      {"smiles": "CCCC[C@H](NC(=O)OC(c1ccccc1)C(F)(F)c1cccc(Cl)c1)C(=O)N[C@@H](C[C@@H]1CCNC1=O)C(=O)c1nc2ccccc2o1", "note": "(stereo partly drawn) [Compound A269, 2-(3-chlorophenyl)-2,2-difluoro-1-phenylethyl ((S)-1-(((S)-1-(benzo[d]oxazol-2-yl)-1-oxo-3-((S)-2-oxopyrrolidin-3-yl)propan-2-yl)amino)-1-oxohexan-2-yl)carbamate]", "IC50": 0.418},
      {"smiles": "CCCC[C@H](NC(=O)OC(c1ccccc1)C1(c2cccc(Cl)c2)CC1)C(=O)N[C@@H](C[C@@H]1CCNC1=O)C(=O)C(=O)NC1CC1", "note": "(stereo partly drawn) [Compound A136]", "IC50": 0.083},
      {"smiles": "O=C[C@H](C[C@@H]1CCNC1=O)NC(=O)[C@H](Cc1ccc(Cl)cc1)NC(=O)OC(c1ccccc1)C(F)(F)c1cccc(Cl)c1", "note": "(stereo partly drawn) [Compound A262, 2-(3-chlorophenyl)-2,2-difluoro-1-phenylethyl ((S)-3-(4-chlorophenyl)-1-oxo-1-(((S)-1-oxo-3-((S)-2-oxopyrrolidin-3-yl)propan-2-yl)amino)propan-2-yl)carbamate]", "IC50": 0.203},
      {"smiles": "CCCC[C@H](NC(=O)OC(c1ccccc1)C(F)(F)c1cccc(Cl)c1)C(=O)N[C@@H](C[C@@H]1CCNC1=O)C(=O)C(=O)NCCN(CC)CC", "note": "(stereo partly drawn) [Compound A271]", "IC50": 0.936}
    ]}
  ]
}
